Reference: US4954358A, “Multiplication inhibitor for Bacillus cereus” (priority 1986, dated 1990)

Experiments:
Format in all cases: cell-based
Bacillus cereus [1] = assay: Keeping test, cooked rice contaminated with Bacillus cereus, 30° C.; settings: for Effective keeping time: cooked rice contaminated with Bacillus cereus, 30° C., time until Bacillus cereus 10^6 /g or more; for effectiveness against Bacillus cereus in tests with actual food: cooked rice (Example 4), result in words
Experimental: Two hundred grams of polished rice was washed in water, and with the addition of 240 ml of water, it was cooked for approximately 15 minutes in an electric rice-cooker which was of the type in public use. The rice cooked was left standing in hot steam for 10 minutes, and then left to cool off at room temperature. On the other hand, a suspension of spores of Bacillus cereus was prepared and added to the cooked rice, which had cooled off, in the proportion of n×10^2 to 1 g final specimen. Specimens were prepared by mixing the rice evenly with addition of the spores.
The cooked rice was put in a plastic case for each 120 g and its temperature was maintained at 30° C., and the number of total viable bacteria and the number of Bacillus cereus were measured periodically using a standard agar culture medium (37° C., 48 hours) and a polymyxin BCW agar culture medium with 5% egg yellow (37° C., 24 hours) for each In parallel with this measurement of the bacterium number, the specimens were examined concerning the outward appearance and the possible smell of putrefaction.
Each of the chemicals shown in Table 4 was dissolved in 20 ml of water to form an aqueous solution of a set concentration.

total viable bacteria = assay: Keeping test, cooked rice not contaminated with Bacillus cereus, 30° C.; settings: time without smell of putrefaction or change in outward appearance
Bacillus subtilis = assay: MIC, agar plate dilution method on standard nutrient agar; settings: Bacillus subtilis spores, 37° C., 24 hours
Experimental: (§1) The minimum growth inhibiting concentration (MIC) of various antibacterial substances against Bacillus cereus and other general putrefying bacteria were measured by using a standard nutrient agar (made by Difco Corp.) and by introducing the agar plate dilution method.
(§2) On a plain culture medium on which chemicals were placed in a stepwise dilution system the liquid spore suspension (×10^8 /ml) with respect to the strains of the genus of Bacillus and the respective pre-culture mediums (37° C., 24 hours) provided by Brain Heart Infusion Broth with respect to the other strains were smeared.

Staphylococcus aureus = assay: as above; settings: 37° C., 24 hours
Experimental: as §1, §2

Bacillus coaglans = assay: as above; settings: Bacillus coaglans spores, 37° C., 24 hours
Experimental: as §1, §2

Bacillus megaterium = assay: as above; settings: Bacillus megaterium spores, 37° C., 24 hours
Experimental: as §1, §2

Lactobacillus casei = assay: as above; settings: 37° C., 24 hours
Experimental: as §1, §2

Bacillus cereus [2] = assay: as above; settings: for minimum growth inhibiting concentration (MIC): Bacillus cereus spores, 37° C., 24 hours, judged with the naked eye; for growth inhibition effect against Bacillus cereus: standard nutrient agar, result in words
Experimental: as §1, §2

Streptococcus faecalis = assay: as above; settings: 37° C., 24 hours
Experimental: as §1, §2

Bacillus licheniformis = assay: as above; settings: Bacillus licheniformis spores, 37° C., 24 hours
Experimental: as §1, §2

[3] = test system: Leuconostoc mesenteroides; assay: as above; settings: 37° C., 24 hours
Experimental: as §1, §2

Bacillus cereus [4] = assay: Keeping test, potato salad contaminated with Bacillus cereus, 30° C.; settings: time until Bacillus cereus 10^6 /g or more
Experimental: (§3) Potato salad was prepared according to the following recipe.
(§4) Mayonnaise in the proportion of 10% by weight against the above materials was combined with various chemicals of prescribed concentrations listed in Table 5 and these were evenly mixed with the above food materials. Mixed specimens were prepared by inoculating Bacillus cereus in the form of a spore suspension in such a way as to make the bacterial number n×10^2 per gram on the final specimen.
The same Bacillus cereus as in Example 1 was employed for this example.
(§5) The potato salad thus prepared was packed into plastic containers and left standing at 30° C. The bacterial number of total viable active bacteria and that of Bacillus cereus were measured with respect to the changes with time by the same method as in Example 1.
(§6) The effective keeping time and the figures in the upper and the lower spaces for each chemical in the list are used in the same meanings as in Example 4.

[5] = test system: total viable active bacteria; assay: Keeping test, potato salad not contaminated with Bacillus cereus, 30° C.; settings: time without smell of putrefaction or change in outward appearance
Experimental: as §3, §4, §5, §6

CCCCCCCCCC(=O)OCC(O)CO (stereo not drawn) [Capric acid monoglyceride]
Effective keeping time (Bacillus cereus [1]; chemical 0.01% by weight): 8.4 h | Effective keeping time (total viable bacteria; chemical 0.01% by weight): 35.0 h | minimum growth inhibiting concentration (MIC) (Bacillus subtilis): 0.01% | minimum growth inhibiting concentration (MIC) (Staphylococcus aureus; in %): 0.025 | minimum growth inhibiting concentration (MIC) (Bacillus coaglans): 0.01% | minimum growth inhibiting concentration (MIC) (Bacillus megaterium): 0.01% | minimum growth inhibiting concentration (MIC) (Lactobacillus casei; in %): 0.025 | minimum growth inhibiting concentration (MIC) (Bacillus cereus [2]): 0.01% | growth inhibition effect against Bacillus cereus (Bacillus cereus [2]): showed effectiveness | minimum growth inhibiting concentration (MIC) (Streptococcus faecalis; in %): 0.025 | minimum growth inhibiting concentration (MIC) (Bacillus licheniformis): 0.01% | minimum growth inhibiting concentration (MIC) ([3]; in %): 0.025

CCO [Ethyl alcohol]
Effective keeping time (Bacillus cereus [4]; chemical 1% by weight): 10.0 h | Effective keeping time ([5]; chemical 1% by weight): 29.2 h

NCC(=O)O [Glycine]
Effective keeping time (Bacillus cereus [4]; chemical 1% by weight): 12.0 h | effectiveness against Bacillus cereus in tests with actual food (Bacillus cereus [1]): proved effective, though the effect is of no practical value | Effective keeping time (Bacillus cereus [1]; chemical 1% by weight): 10.1 h | Effective keeping time (total viable bacteria; chemical 1% by weight): 110.0 h | minimum growth inhibiting concentration (MIC) (Bacillus subtilis): 1% | minimum growth inhibiting concentration (MIC) (Staphylococcus aureus): 5% | minimum growth inhibiting concentration (MIC) (Bacillus coaglans): 1% | minimum growth inhibiting concentration (MIC) (Bacillus megaterium): 1% | minimum growth inhibiting concentration (MIC) (Lactobacillus casei): 4% | minimum growth inhibiting concentration (MIC) (Bacillus cereus [2]): > 8% | minimum growth inhibiting concentration (MIC) (Streptococcus faecalis): 4% | minimum growth inhibiting concentration (MIC) (Bacillus licheniformis): 2% | minimum growth inhibiting concentration (MIC) [3]: 4% | Effective keeping time ([5]; chemical 1% by weight): 36.0 h

CCCCCCCCCCCC(=O)OCC(O)CO (stereo not drawn) [Lauric acid monoglyceride]
Effective keeping time (Bacillus cereus [4]; chemical 0.01% by weight): 11.5 h | Effective keeping time (Bacillus cereus [1]; chemical 0.01% by weight): 8.2 h | Effective keeping time (total viable bacteria; chemical 0.01% by weight): 40.0 h | minimum growth inhibiting concentration (MIC) (Bacillus subtilis; in %): 0.0025 | minimum growth inhibiting concentration (MIC) (Staphylococcus aureus): 0.01% | minimum growth inhibiting concentration (MIC) (Bacillus coaglans; in %): 0.0025 | minimum growth inhibiting concentration (MIC) (Bacillus megaterium; in %): 0.0025 | minimum growth inhibiting concentration (MIC) (Lactobacillus casei): 0.01% | minimum growth inhibiting concentration (MIC) (Bacillus cereus [2]; in %): 0.0025 | growth inhibition effect against Bacillus cereus (Bacillus cereus [2]): showed effectiveness | minimum growth inhibiting concentration (MIC) (Streptococcus faecalis): 0.01% | minimum growth inhibiting concentration (MIC) (Bacillus licheniformis; in %): 0.0025 | minimum growth inhibiting concentration (MIC) [3]: 0.01% | Effective keeping time ([5]; chemical 0.01% by weight): 22.0 h

CC(=O)[O-].[Na+] [Sodium acetate]
Effective keeping time (Bacillus cereus [4]; chemical 0.4% by weight): 10.0 h | effectiveness against Bacillus cereus in tests with actual food (Bacillus cereus [1]): proved effective, though the effect is of no practical value | Effective keeping time (Bacillus cereus [1]; chemical 0.4% by weight): 11.5 h | Effective keeping time (total viable bacteria; chemical 0.4% by weight): 43.0 h | minimum growth inhibiting concentration (MIC) (Bacillus subtilis): > 0.5% | minimum growth inhibiting concentration (MIC) (Staphylococcus aureus): > 0.5% | minimum growth inhibiting concentration (MIC) (Bacillus coaglans): > 0.5% | minimum growth inhibiting concentration (MIC) (Bacillus megaterium): > 0.5% | minimum growth inhibiting concentration (MIC) (Lactobacillus casei): > 0.5% | minimum growth inhibiting concentration (MIC) (Bacillus cereus [2]): > 0.5% | minimum growth inhibiting concentration (MIC) (Streptococcus faecalis): > 0.5% | minimum growth inhibiting concentration (MIC) (Bacillus licheniformis): > 0.5% | minimum growth inhibiting concentration (MIC) [3]: > 0.5% | Effective keeping time ([5]; chemical 0.4% by weight): 27.0 h

O=P1([O-])OP(=O)([O-])OP(=O)([O-])OP(=O)([O-])OP(=O)([O-])OP(=O)([O-])O1.[Na+].[Na+].[Na+].[Na+].[Na+].[Na+] [Sodium hexametaphosphate]
Effective keeping time (Bacillus cereus [1]; chemical 0.5% by weight): 9.2 h | Effective keeping time (total viable bacteria; chemical 0.5% by weight): 35.0 h | minimum growth inhibiting concentration (MIC) (Bacillus subtilis; in %): 0.125 | minimum growth inhibiting concentration (MIC) (Staphylococcus aureus; in %): 0.125 | minimum growth inhibiting concentration (MIC) (Bacillus coaglans; in %): 0.125 | minimum growth inhibiting concentration (MIC) (Bacillus megaterium; in %): 0.125 | minimum growth inhibiting concentration (MIC) (Lactobacillus casei; in %): 0.125 | minimum growth inhibiting concentration (MIC) (Bacillus cereus [2]; in %): 0.125 | growth inhibition effect against Bacillus cereus (Bacillus cereus [2]): showed effectiveness | minimum growth inhibiting concentration (MIC) (Streptococcus faecalis; in %): 0.125 | minimum growth inhibiting concentration (MIC) (Bacillus licheniformis; in %): 0.125 | minimum growth inhibiting concentration (MIC) ([3]; in %): 0.125

O=P([O-])([O-])OP(=O)([O-])[O-].[Na+].[Na+].[Na+].[Na+] [Sodium pyrophosphate]
Effective keeping time (Bacillus cereus [1]; chemical 0.5% by weight): 8.6 h | Effective keeping time (total viable bacteria; chemical 0.5% by weight): 35.0 h | minimum growth inhibiting concentration (MIC) (Bacillus subtilis): > 0.5% | minimum growth inhibiting concentration (MIC) (Staphylococcus aureus): > 0.5% | minimum growth inhibiting concentration (MIC) (Bacillus coaglans): > 0.5% | minimum growth inhibiting concentration (MIC) (Bacillus megaterium): > 0.5% | minimum growth inhibiting concentration (MIC) (Lactobacillus casei): > 0.5% | minimum growth inhibiting concentration (MIC) (Bacillus cereus [2]): > 0.5% | minimum growth inhibiting concentration (MIC) (Streptococcus faecalis): > 0.5% | minimum growth inhibiting concentration (MIC) (Bacillus licheniformis): > 0.5% | minimum growth inhibiting concentration (MIC) [3]: > 0.5%

C/C=C/C=C/C(=O)O [Sorbic acid]
Effective keeping time (Bacillus cereus [4]; chemical 0.1% by weight): 38.6 h | Effective keeping time ([5]; chemical 0.1% by weight): 96.0 h

O=C([O-])c1ccccc1.[Na+] [sodium benzoate]
Effective keeping time (Bacillus cereus [4]; chemical 0.1% by weight): 36.2 h | Effective keeping time ([5]; chemical 0.1% by weight): 92.0 h

Caprylic acid monoglyceride
Effective keeping time (Bacillus cereus [1]; chemical 0.05% by weight): 8.6 h | Effective keeping time (total viable bacteria; chemical 0.05% by weight): 35.0 h | minimum growth inhibiting concentration (MIC) (Bacillus subtilis): 0.05% | minimum growth inhibiting concentration (MIC) (Staphylococcus aureus): 0.1% | minimum growth inhibiting concentration (MIC) (Bacillus coaglans): 0.05% | minimum growth inhibiting concentration (MIC) (Bacillus megaterium): 0.05% | minimum growth inhibiting concentration (MIC) (Lactobacillus casei): 0.05% | minimum growth inhibiting concentration (MIC) (Bacillus cereus [2]): 0.05% | growth inhibition effect against Bacillus cereus (Bacillus cereus [2]): showed effectiveness | minimum growth inhibiting concentration (MIC) (Streptococcus faecalis): 0.05% | minimum growth inhibiting concentration (MIC) (Bacillus licheniformis): 0.05% | minimum growth inhibiting concentration (MIC) [3]: 0.05%

Lysozyme
Effective keeping time (Bacillus cereus [1]; chemical 0.05% by weight): 8.5 h | Effective keeping time (total viable bacteria; chemical 0.05% by weight): 35.0 h | minimum growth inhibiting concentration (MIC) (Bacillus subtilis): 0.02% | minimum growth inhibiting concentration (MIC) (Staphylococcus aureus): > 0.05% | minimum growth inhibiting concentration (MIC) (Bacillus coaglans): 0.05% | minimum growth inhibiting concentration (MIC) (Bacillus megaterium): 0.05% | minimum growth inhibiting concentration (MIC) (Lactobacillus casei): > 0.05% | minimum growth inhibiting concentration (MIC) (Bacillus cereus [2]): > 0.05% | minimum growth inhibiting concentration (MIC) (Streptococcus faecalis): > 0.05% | minimum growth inhibiting concentration (MIC) (Bacillus licheniformis): > 0.05% | minimum growth inhibiting concentration (MIC) [3]: > 0.05%

Sodium polyphosphate
Effective keeping time (Bacillus cereus [1]; chemical 0.5% by weight): 9.0 h | Effective keeping time (total viable bacteria; chemical 0.5% by weight): 35.0 h | minimum growth inhibiting concentration (MIC) (Bacillus subtilis; in %): 0.025 | minimum growth inhibiting concentration (MIC) (Staphylococcus aureus): 0.5% | minimum growth inhibiting concentration (MIC) (Bacillus coaglans): 0.5% | minimum growth inhibiting concentration (MIC) (Bacillus megaterium; in %): 0.025 | minimum growth inhibiting concentration (MIC) (Lactobacillus casei): 0.5% | minimum growth inhibiting concentration (MIC) (Bacillus cereus [2]): 0.5% | growth inhibition effect against Bacillus cereus (Bacillus cereus [2]): showed effectiveness | minimum growth inhibiting concentration (MIC) (Streptococcus faecalis): 0.5% | minimum growth inhibiting concentration (MIC) (Bacillus licheniformis; in %): 0.025 | minimum growth inhibiting concentration (MIC) [3]: 0.5%

protamine
effectiveness against Bacillus cereus in tests with actual food (Bacillus cereus [1]): only protamine has proved to be effective | growth inhibition effect against Bacillus cereus (Bacillus cereus [2]): showed effectiveness

protamine sulfate
minimum growth inhibiting concentration (MIC) (Bacillus subtilis): 0.05% | minimum growth inhibiting concentration (MIC) (Staphylococcus aureus): 0.05% | minimum growth inhibiting concentration (MIC) (Bacillus coaglans): 0.05% | minimum growth inhibiting concentration (MIC) (Bacillus megaterium): 0.05% | minimum growth inhibiting concentration (MIC) (Lactobacillus casei): 0.1% | minimum growth inhibiting concentration (MIC) (Bacillus cereus [2]): 0.1% | minimum growth inhibiting concentration (MIC) (Streptococcus faecalis): 0.1% | minimum growth inhibiting concentration (MIC) (Bacillus licheniformis): 0.05% | minimum growth inhibiting concentration (MIC) [3]: 0.1%
